The subject of one test is Renca tumor. Kind of test: BALB/c mouse Renca renal cell carcinoma tumor model, tumor inhibition rate. It is filed as in vivo, BALB/c mice. The arrangement: Tumor Inhibition Rates (Compared with Control Group): concentration or dose not given beside the values. Conditions: for Tumor Inhibition Rates (Compared with Control Group): Renca model. The method, then: BALB/c female mice, aged 6-8 weeks and weighing around 20 grams, were utilized. Renca cells (3.0×106) dissolved in 100 μL PBS were subcutaneously injected into the BALB/c mice. Upon reaching a tumor volume of about 70 mm^3, experimental animals were randomly distributed into control and treatment groups.
Lenvatinib was administered orally once daily at a dosage of 7.5 mg/kg; hydroxyprogesterone caproate was administered intraperitoneally (abbreviated as i.p. in the table) every two days. Anti-PD-1 antibody (BioXCell, Supplier: Yicon (Beijing) Medical Technology Inc.) was diluted in PBS and administered every four days at a dose of 100 μg per mouse.
Tumor size was measured biweekly using calipers for two-dimensional measurements. The volume was calculated using the formula and expressed in mm^3: V=(X^2Y)/2, where X and Y represent the shorter and longer diameters of the tumor, respectively.

Test [1] concerns CT26 tumor. The test is described as follows: BALB/c mouse CT26 tumor model, tumor volume / tumor inhibition rate. It is filed as in vivo, BALB/c mice. The arrangement: Tumor Inhibition Rate (Compared with Control Group): concentration or dose not given beside the values. The conditions noted are these: for Tumor Inhibition Rate (Compared with Control Group): CT26 model. How it is done: Female BALB/c mice aged 6-8 weeks with a body weight of approximately 20 grams were used. CT26 cells (5.0×106) dissolved in 100 μL of PBS were subcutaneously injected into BALB/c mice. When the tumor volume reached approximately 100 mm^3, the experimental animals were randomly divided into control and various treatment groups for the experiment.
Lenvatinib was administered orally once daily at a dosage of 10 mg/kg. Hydroxyprogesterone caproate was administered via intraperitoneal injection (abbreviated as i.p. in the table below) every two days. Anti-PD-1 antibody (RMP1-14), diluted in PBS, was administered every three days at a dosage of 200 μg per mouse.
Tumor size was measured using calipers twice a week for two-dimensional assessment. Tumor volume was calculated using the formula V=(X2Y)/2, where X and Y represent the shorter and longer diameters of the tumor, respectively, expressed in mm^3.

The subject of another test is MC38/hPD-L1 tumor. Kind of test: Humanized PD-1 mouse MC38/hPD-L1 tumor model. It is filed as in vivo, humanized PD-1 mice. How it is done: Humanized PD-1 mice, female, aged 6-8 weeks, weighing approximately 20 grams, were used. MC38/hPD-L1 cells (5.0×106) dissolved in 100 μL PBS were injected subcutaneously into the humanized PD-1 mice. Upon reaching a tumor volume of approximately ˜100 mm^3, experimental animals were randomly assigned to control and various treatment groups and subsequently initiated with drug administration.
Lenvatinib (Eisai, Japan) was administered orally once daily at a dose of 10 mg/kg. Hydroxyprogesterone Caproate was administered via intraperitoneal injection every two days. Pembrolizumab was administered every three days at a dose of 200 μg per mouse. The duration of drug administration lasted around 20 days.
2) Tumor volume measured twice weekly.

Test [2] has as its system CT26 tumor. The test is described as follows: BALB/c mouse CT26 tumor model with anti-PD-L1 antibody 10F.9G2. It is filed as in vivo, BALB/c mice. The conditions noted are these: anti-PD-L1 10F.9G2. How it is done:
Female BALB/c mice aged 6-8 weeks, weighing approximately 20 grams, were used. CT26 cells (5.0×106) dissolved in 100 μL PBS were subcutaneously injected into the BALB/c mice. When the tumor volume reached ˜100 mm^3, the experimental animals were randomly assigned to control and treatment groups, and drug administration commenced.
Lenvatinib (Eisai, Japan) was administered orally once daily at a dose of 10 mg/kg; Hydroxyprogesterone Caproate was administered via intraperitoneal injection every two days; 10F.9G2 was administered every three days at a dose of 200 μg/mouse. Drug administration continued for approximately 20 days.
2) Tumor volume was measured twice a week, and its size was calculated using the formula: […]

“Also recorded” adds a separate entry of the source.

With `COc1cc2nccc(Oc3ccc(NC(=O)NC4CC4)c(Cl)c3)c2cc1C(N)=O` [Lenvatinib], the “Tumor Inhibition Rates (Compared with Control Group)” value worked out at 0.00% in the test on Renca tumor (Day 6); 22.92% with Renca tumor (Day 9); 48.51% in the test with Renca tumor (Day 13); 55.37% with Renca tumor (Day 16); 70.68% with Renca tumor (Day 20).
In the case of `CCCCCC(=O)O[C@]1(C(C)=O)CC[C@H]2[C@@H]3CCC4=CC(=O)CC[C@]4(C)[C@H]3CC[C@@]21C` [HPC, Hydroxyprogesterone caproate], the “Tumor suppression effect (in words)” value in the test with CT26 tumor [1] (BALB/c mouse CT26 tumor model, HPC 20 mg/kg i.p., Lenvatinib 10 mg/kg p.o., RMP1-14 200 μg/mouse) is recorded as “did not exhibit a favorable tumor suppression effect; also recorded: promoting tumor growth”; in the test on Renca tumor (BALB/c mouse Renca tumor model), “exhibits a certain degree of tumor suppression”. The “Tumor Inhibition Rate (Compared with Control Group)” value is given as 0.00% in the test on CT26 tumor [1] (Day 0); 3.66% with CT26 tumor [1] (Day 4); −14.89% in the test with CT26 tumor [1] (Day 7); −13.61% in the test on CT26 tumor [1] (Day 11); −31.32% in the test on CT26 tumor [1] (Day 14); −47.15% in the test with CT26 tumor [1] (Day 18). In addition, in the test with CT26 tumor [1] (Day 20), the “Tumor Inhibition Rate (Compared with Control Group)” value is reported as −37.09%. The results for the “Anti-tumor effect (in words)” value in the test on MC38/hPD-L1 tumor and in the test with CT26 tumor [2] were “did not exhibit significant tumor inhibitory effects” and “did not exhibit significant tumor suppression”, respectively. For the same compound, the “Tumor Inhibition Rates (Compared with Control Group)” value is listed as 0.00% in the test on Renca tumor (Day 6); 40.00% in the test on Renca tumor (Day 9); 48.51% with Renca tumor (Day 13); 43.95% with Renca tumor (Day 16); 56.59% with Renca tumor (Day 20).
